For data set [1], the system named is J774.A1 cell lines (macrophages). Put plainly: Cytotoxicity against J774.A1 macrophages, MTT assay. In kind it is cell-based, murine (BALB/c). The note with it: Mus musculus, J774.A1, 48 h, read-out: IC50 (concentration required to give 50% death of cells). The procedure:
Initially the cytotoxic profile of compounds 9a–e and 10a–e against J774.A1 cell lines (i.e., BALB/c macrophage cell lines) was investigated. Therefore, these cells were exposed to different concentrations (0.1–100 μM) of compounds 9a–e and 10a–e and the cytotoxic effect was measured after 48 h of drug incubation, by using MTT-based assay. The cytotoxicity was expressed as IC50 values (that means the concentration of a drug that kills half of the tested cells in culture). As depicted in Table 1, most compounds have shown low cytotoxic activity with IC50 > 100 μM.
These adherent-phenotype macrophage lines were cultured in Dulbecco's Modified Eagle's medium (DMEM, Sigma) supplemented with 10% FBS at 37 °C with 95% humidity and 5% CO2.
To evaluate the cytotoxic activity against the J774.A1 cell line, the host cells were plated in 96-well cell culture plate (flat bottom, clear, Corning) at 2 × 10^5 cells per well in complete culture medium 10% FBS at 37 °C. After 1 h wells were washed with warm Hank's Balanced Salt solution (HBSS) to remove non-adherent cells, leaving approximately 10^5 adherent macrophages. All cultures were done in DMEM complete supplemented with 10% FBS. The compounds and pentamidine were added at serial concentrations (0.1–100 μM). The cells were also cultured with medium free from compounds or vehicle (basal growth control) or in media with DMSO 0.1% (vehicle control). Positive control (dead cells) was obtained by cellular lysis with 1% of Triton 100× in DMEM complete (because it is a detergent in this concentration, Triton 100× destabilizes the cell membrane of macrophages, causing cell death). The cytotoxicity was evaluated by the MTT assay.[31] This assay consists of indirectly measuring cell viability through the mitochondrial enzymatic activity of macrophages. Viable cells are capable of reducing MTT to formazan. For this, after the incubation of plate for 48 h, 100 μL of MTT solution (0.5 mg mL^−1, in DMEM medium) was added per well, and the plate was incubated for 1 h. Then, the supernatant of each well was retired and was added 150 μL of DMSO. The absorbance was determined at 570 nm in a microplate reader. The cell viability of the cultures treated with the compounds was compared to the death pattern obtained in the control cultures. In the positive control, the cell death was confirmed when the optical density was equal to zero, confirming that the cells were not viable. Data obtained from experiments were expressed as the mean ± standard error of the mean (mean ± S.E.M.) and statistical differences between the treated and the vehicle groups of experiments were evaluated by ANOVA and Dunnett hoc tests.

The test system of data set [2] is L. amazonensis intracellular amastigotes. Put plainly: Leishmanicidal activity against intracellular amastigote forms of L. amazonensis in J774.A1 macrophages. It is filed as cell-based. The procedure: Considering that L. amazonensis is one of the causative species of cutaneous leishmaniasis in Brazil,[20] we have investigated the leishmanicidal effect of compounds 9a–e and 10a–e against L. amazonensis amastigotes forms. Initially, all compounds were evaluated at 30 μM. […] Then, they were selected to determine their IC50 value for intracellular amastigote forms of L. amazonensis.
Promastigotes of L. amazonensis (MHOM/BR/77/LTB0016) were obtained from Dr Eduardo Caio Torres dos Santos at Oswaldo Cruz Institute – Fiocruz. Promastigotes of L. braziliensis (MHOM/BR/01/BA788) were obtained from Dr Valéria de Matos Borges at Gonçalo Moniz Research Center – Fiocruz. The parasites were maintained in vitro in Schneider's medium, supplemented with 10% FBS and 2% human urine at 27 °C in BOD incubator.
Initially, compounds 9a–e and 10a–e were evaluated at screening concentration of 30 μM against L. amazonensis, using DMSO 0.03% as vehicle control, since this was the DMSO concentration (vehicle) remaining in each well with the tested compounds. […] Vehicle control used was DMSO 0.1%, since this was the concentration of DMSO (vehicle) existing in each well with the tested substances in the highest concentration used.
To assess the activity of the test derivatives against the amastigote stage of L. amazonensis and L. braziliensis the model of infection in coverglass was realized.[31] The murine macrophages (J774.A1 cell line) were prepared in 24-well cell culture plate (flat bottom, clear, Corning) at 2 × 10^5 adherent cells per well, infected with 2 × 10^6 promastigotes in glass coverslips placed inside 1 mL medium culture. The cultures were cultured or not with the test derivatives or reference drugs, and kept for 24 h at 37 °C, 5% CO2. After 24 h of incubation, the coverslips were washed, stained with Giemsa–May–Grünwald, and intracellular amastigotes were counted in 100 macrophages, using an optical microscope, on the objective of 100×. Thus, during the counting of 100 macrophages, the amount of amastigotes present within these defence cells was also determined. Data obtained from in vitro experiments were expressed as the mean ± S.E.M. of duplicate cultures of representative assays. Statistical differences between the treated and the control groups were evaluated by ANOVA and Dunnett hoc tests. Differences with a p value < 0.05 or lower were considered significant.

Data set [3] in a line: Chemical stability in PBS pH 7.4. It is filed as physicochemical. Conditions: PBS pH 7.4, 37 °C, 0 and 240 minutes. The procedure: To investigate the potential plasma instability of the carbamoyl-N-arylimine-urea subunit, designed as a new peptide mimetic framework, compound 10e (LASSBio-1736) was selected to investigate its plasma stability,[21,22] previously to the evaluation of its in vivo leishmanicidal effect. Quantitation of 10e (LASSBio-1736), benzocaine standard (positive control; it means a substrate drug for plasma hydrolysis) and ketoconazole (internal standard) was determined by UPLC-MS/MS, after incubation of the compounds at 0, 30, 60, 120 and 240 min with rat plasma, and measuring the peak areas in three different experiments. […]
final R1 factor for I >2σ(I ) 0.0594 final wR 2 factor for all data 0.1689 largest diff. peak / hole (e/Å 3) 0.220 and -0.256
Chemical stability pH 7.4
In a 10 mL tube, 5μL (250 ng/mL) of LASSBio-1736 (10e) (stock concentration = 10000 ng/mL solubilized in DMSO) was added in 195μ L of PBS (pH=7.4), and the mixture was placed in a shaker at 37 °C under vigorous stirring for 0 and 240 minutes. […]
The samples were resuspended with 100 μL of a methanol:water mixture (7:3) […] and were placed in 2 mL vials, and analyzed by UPLC-MS. […]

The mark [4] stands for this setting: L. amazonensis amastigotes, ratio of IC50 values.

SMILES strings stand for the structures.

For the molecule `O=C(N/N=C/c1ccc(C(F)(F)F)cc1)NNC(=O)c1ccc(Cl)cc1Cl` [LASSBio-1736 (10e), 2,4-dichloro-phenylcarbamoyl-N-4-trifluoromethylphenylimine-urea], the IC50 in data set [1] is more than 100 µM. Moreover, in data set [2] (setting [4]), the “Times less potent than miltefosine” value was approximately 4.0 times and the “Times less potent than pentamidine” value is “about 2.5 times”. Besides, in data set [2] (L. amazonensis, screening concentration 30 μM), the “Effect on the number of intracellular amastigotes” value was “decreased the number of intracellular amastigotes”. For the same molecule, the IC50 in data set [2] (Leishmania amazonensis, J774.A1, 24 h, read-out: IC50 (concentration required to give 50% death of parasites)) came out at 84 ± 0.3 µM. In addition, the Emax in data set [2] (Leishmania amazonensis, J774.A1, L. amazonensis intracellular amastigotes, maximum toxicity vs 0.1% DMSO group, read-out: Maximum effect (% ± S.E.M.)) turned out to be 57.6 ± 0.2%. Further, in data set [3], the “Stability to hydrolysis at PBS (pH 7.4)” value is recorded as “stable to hydrolysis”.

(Values after publication PMC9050848, “Carbamoyl-N-aryl-imine-urea: a new framework to obtain a putative leishmanicidal drug-candidate” (RSC Advances, 2020).)
